From US12139520B2 (priority 2020, dated 2024)
Bridge positions count the residues as written; N and C are the ends. Square brackets hold non-standard residues; d marks the D form. Peptide text beside a SMILES is read from it. Hyp = O=C(O)[C@@H]1C[C@@H](O)CN1; Cit = NC(=O)NCCC[C@H](N)C(=O)O

Columns and labels:
[1] = molecular target: T1, hAMY3 receptor (Homo sapiens, UniProt O60896+P30988); assay: cAMP assay for in vitro receptor activation, hAMY3-R; type: cell-based; settings: cAMP assay, hAMY3 receptor; read-out: hAMY3R EC50
T1 sequence (P30988 25-474): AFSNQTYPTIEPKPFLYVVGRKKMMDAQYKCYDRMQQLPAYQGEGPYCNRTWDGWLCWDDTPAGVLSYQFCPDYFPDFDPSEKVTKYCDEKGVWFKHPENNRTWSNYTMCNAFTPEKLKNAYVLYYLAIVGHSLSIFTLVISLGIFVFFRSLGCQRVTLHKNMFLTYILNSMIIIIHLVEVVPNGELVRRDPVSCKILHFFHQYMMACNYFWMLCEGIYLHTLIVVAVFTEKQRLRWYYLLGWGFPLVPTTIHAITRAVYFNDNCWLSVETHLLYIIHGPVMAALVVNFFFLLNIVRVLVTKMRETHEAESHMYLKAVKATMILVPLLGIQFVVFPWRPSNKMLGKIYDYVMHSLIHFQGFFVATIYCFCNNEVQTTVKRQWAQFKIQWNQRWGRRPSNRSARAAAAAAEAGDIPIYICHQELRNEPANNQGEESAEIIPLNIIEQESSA
T1 sequence (O60896 24-148 partner): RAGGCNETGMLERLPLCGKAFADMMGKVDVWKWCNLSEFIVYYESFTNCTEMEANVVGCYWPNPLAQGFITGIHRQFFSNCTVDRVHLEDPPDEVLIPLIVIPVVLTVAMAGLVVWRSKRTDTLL
How it was run: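 Monoclonal cell line stably overexpressing human AMY3 receptor, 2000 cells/well in DPBS with 0.05% casein and 0.5 mM IBMX. Stimulated 30 min at room temperature with graded compound doses, human amylin as positive control. cAMP accumulation read by TR-FRET after one hour.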

[2] = Physical stability of peptide analogues (Thioflavin T fibrillation); type: physicochemical; settings: maximum ThT signal normalized between hAMY maximum and buffer background; 40° C., shaking, four days; pH 7 per table title
How it was run: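 Samples are stressed at 40 °C for four days, being shaken at 700 rpm before each 10-min fluorescence reading of 4 μM Thioflavin T. Buffers were pH 4 acetate or pH 7 phosphate. Reported values are smoothed maximum ThT signals as a percentage of the hAMY-to-background range.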

[3] = molecular target: hAM1 receptor (Homo sapiens, UniProt O60895+Q16602); assay: cAMP assay for in vitro receptor activation, hAM1-R; type: cell-based; settings: cAMP assay, hAM1 receptor; read-out: hAM1R EC50
Chain of hAM1 receptor (Q16602 23-461): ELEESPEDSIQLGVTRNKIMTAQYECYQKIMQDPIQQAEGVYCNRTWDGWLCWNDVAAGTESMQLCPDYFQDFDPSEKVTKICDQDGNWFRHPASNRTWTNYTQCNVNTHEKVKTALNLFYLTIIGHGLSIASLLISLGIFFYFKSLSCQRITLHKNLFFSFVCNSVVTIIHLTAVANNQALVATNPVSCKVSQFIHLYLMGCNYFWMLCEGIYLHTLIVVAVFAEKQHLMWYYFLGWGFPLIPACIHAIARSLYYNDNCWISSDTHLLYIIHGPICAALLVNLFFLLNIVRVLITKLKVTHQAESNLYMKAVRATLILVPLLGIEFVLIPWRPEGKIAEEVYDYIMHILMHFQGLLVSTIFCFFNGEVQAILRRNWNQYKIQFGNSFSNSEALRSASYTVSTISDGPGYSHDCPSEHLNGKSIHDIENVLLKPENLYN
Chain of hAM1 receptor (O60895 43-175 partner): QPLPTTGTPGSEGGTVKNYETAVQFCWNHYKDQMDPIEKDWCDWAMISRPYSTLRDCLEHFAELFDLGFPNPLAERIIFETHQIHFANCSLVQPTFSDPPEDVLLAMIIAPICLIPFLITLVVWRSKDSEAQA
How it was run: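 Read-out is intracellular cAMP as a measure of receptor activation. Cells stably overexpressing hAM1 were subcloned to a monoclonal line, then thawed and seeded at 8000 cells/well in DPBS with 0.05% casein and the phosphodiesterase inhibitor IBMX at 0.5 mM.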

| Compound | EC50 [1] | Max ThT signal (%) [2] | EC50 [3] |
| --- | --- | --- | --- |
| CC[C@H](C)[C@H](NC(=O)[C@H](CCC(N)=O)NC(=O)[C@H](Cc1c[nH]cn1)NC(=O)[C@H](C)NC(=O)[C@H](CC(C)C)NC(=O)[C@H](Cc1c[nH]c2ccccc12)NC(=O)[C@H](CCC(N)=O)NC(=O)[C@@H](NC(=O)[C@@H](NC(=O)[C@@H]1CSSC[C@H](NC(=O)CN)C(=O)N[C@@H](CCCNC(=N)N)C(=O)N[C@@H]([C@@H](C)O)C(=O)NCC(=O)N[C@@H]([C@@H](C)O)C(=O)N1)[C@@H](C)O)C(C)C)C(=O)N[C@@H](Cc1ccc(O)cc1)C(=O)N[C@@H](CCC(N)=O)C(=O)N[C@@H](Cc1ccccc1)C(=O)N[C@H](C(=O)N[C@@H](CC(=O)O)C(=O)N[C@@H](CCCCN)C(=O)N[C@@H](CC(=O)O)C(=O)N[C@@H](CCCCN)C(=O)N[C@@H](CC(=O)O)C(=O)N[C@@H](CC(N)=O)C(=O)N[C@H](C(=O)N[C@@H](C)C(=O)N1CCC[C@H]1C(=O)N[C@@H](CCCNC(=N)N)C(=O)N[C@@H](CO)C(=O)N[C@@H](CC(N)=O)C(=O)N[C@H](C(=O)NCC(=O)N1CCC[C@H]1C(=O)N[C@@H](CCC(N)=O)C(=O)NCC(=O)N[C@@H](Cc1ccc(O)cc1)C(N)=O)C(C)C)C(C)C)[C@@H](C)O [compound 346] (H-GCRTGTCTVQWLAHQIYQFTDKDKDNVAPRSNVGPQGY-NH2; disulfide 2-7; N-terminus assumed) | 0.085 nM | 1.200% | > 5000 nM |
| CC[C@H](C)[C@H](NC(=O)[C@H](CCC(N)=O)NC(=O)[C@H](Cc1c[nH]cn1)NC(=O)[C@H](C)NC(=O)[C@H](CC(C)C)NC(=O)[C@H](CCCNC(=N)N)NC(=O)[C@H](CCC(N)=O)NC(=O)[C@@H](NC(=O)[C@@H](NC(=O)[C@@H]1CSSC[C@H](NC(=O)CN)C(=O)N[C@@H](CCCNC(=N)N)C(=O)N[C@@H](CCSC)C(=O)NCC(=O)N[C@@H]([C@@H](C)O)C(=O)N1)[C@@H](C)O)C(C)C)C(=O)N[C@@H](Cc1ccc(O)cc1)C(=O)N[C@@H](CCC(N)=O)C(=O)N[C@@H](Cc1ccccc1)C(=O)N[C@H](C(=O)N[C@@H](CC(N)=O)C(=O)N[C@@H](CCCCN)C(=O)N[C@@H](CC(=O)O)C(=O)N[C@@H](CCCCN)C(=O)N[C@@H](CC(=O)O)C(=O)N[C@@H](CC(N)=O)C(=O)N[C@H](C(=O)N[C@@H](C)C(=O)N1CCC[C@H]1C(=O)N[C@@H](CCCNC(=N)N)C(=O)N[C@@H](CO)C(=O)N[C@@H](CCCCN)C(=O)N[C@H](C(=O)N[C@@H](CO)C(=O)N1CCC[C@H]1C(=O)N[C@@H](CCC(N)=O)C(=O)N[C@H](C(=O)N1C[C@H](O)C[C@H]1C(N)=O)[C@@H](C)O)[C@@H](C)CC)C(C)C)[C@@H](C)O [compound 192] (H-GCRMGTCTVQRLAHQIYQFTNKDKDNVAPRSKISPQT[Hyp]-NH2; disulfide 2-7; N-terminus assumed) | 0.098 nM | 4.100% | > 5000 nM |
| CC[C@H](C)[C@H](NC(=O)[C@H](CCC(N)=O)NC(=O)[C@H](Cc1c[nH]cn1)NC(=O)[C@H](C)NC(=O)[C@H](CC(C)C)NC(=O)[C@H](CCCNC(N)=O)NC(=O)[C@H](CCC(N)=O)NC(=O)[C@@H](NC(=O)[C@@H](NC(=O)[C@@H]1CSSC[C@H](NC(=O)CN)C(=O)N[C@@H](CCCNC(=N)N)C(=O)N[C@@H](Cc2ccccc2)C(=O)NCC(=O)N[C@@H]([C@@H](C)O)C(=O)N1)[C@@H](C)O)C(C)C)C(=O)N[C@@H](Cc1ccc(O)cc1)C(=O)N[C@@H](CCC(N)=O)C(=O)N[C@@H](Cc1ccccc1)C(=O)N[C@H](C(=O)N[C@@H](CC(=O)O)C(=O)N[C@@H](CCCCN)C(=O)N[C@@H](CC(=O)O)C(=O)N[C@@H](CCCCN)C(=O)N[C@@H](CC(=O)O)C(=O)N[C@@H](CC(N)=O)C(=O)N[C@H](C(=O)N[C@@H](C)C(=O)N1CCC[C@H]1C(=O)N[C@@H](CCCNC(=N)N)C(=O)N[C@H](C(=O)N[C@@H](CCCCN)C(=O)N[C@H](C(=O)N[C@@H](CO)C(=O)N1CCC[C@H]1C(=O)N[C@@H](CC(N)=O)C(=O)NCC(=O)N1C[C@H](O)C[C@H]1C(N)=O)C(C)C)[C@@H](C)O)C(C)C)[C@@H](C)O [compound 288] (H-GCRFGTCTVQ[Cit]LAHQIYQFTDKDKDNVAPRTKVSPNG[Hyp]-NH2; disulfide 2-7; N-terminus assumed) | 0.03 nM | 17.450% | > 5000 nM |

Now those with a lower EC50 [1], led by results:

| EC50 [1] | Max ThT signal (%) [2] | EC50 [3] | Compound |
| --- | --- | --- | --- |
| 0.018 nM | 22.650% | > 5000 nM | CC[C@H](C)[C@H](NC(=O)[C@H](CCC(N)=O)NC(=O)[C@H](Cc1c[nH]cn1)NC(=O)[C@H](C)NC(=O)[C@H](CC(C)C)NC(=O)[C@H](CCCNC(N)=O)NC(=O)[C@H](CCC(N)=O)NC(=O)[C@@H](NC(=O)[C@@H](NC(=O)[C@@H]1CSSC[C@H](NC(=O)CN)C(=O)N[C@@H](CCCNC(=N)N)C(=O)N[C@@H]([C@@H](C)O)C(=O)NCC(=O)N[C@@H]([C@@H](C)O)C(=O)N1)[C@@H](C)O)C(C)C)C(=O)N[C@@H](Cc1ccc(O)cc1)C(=O)N[C@@H](CCC(N)=O)C(=O)N[C@@H](Cc1ccccc1)C(=O)N[C@H](C(=O)N[C@@H](CC(=O)O)C(=O)N[C@@H](CCCCN)C(=O)N[C@@H](CC(=O)O)C(=O)N[C@@H](CCCCN)C(=O)N[C@@H](CC(=O)O)C(=O)N[C@@H](CC(N)=O)C(=O)N[C@H](C(=O)N[C@@H](C)C(=O)N1CCC[C@H]1C(=O)N[C@@H](CCCNC(=N)N)C(=O)N[C@H](C(=O)N[C@@H](CC(N)=O)C(=O)N[C@H](C(=O)NCC(=O)N1CCC[C@H]1C(=O)N[C@@H](CCC(N)=O)C(=O)NCC(=O)N1C[C@H](O)C[C@H]1C(N)=O)C(C)C)[C@@H](C)O)C(C)C)[C@@H](C)O [compound 261] (H-GCRTGTCTVQ[Cit]LAHQIYQFTDKDKDNVAPRTNVGPQG[Hyp]-NH2; disulfide 2-7; N-terminus assumed) |
| 0.028 nM | 11.850% | > 5000 nM | CC[C@H](C)[C@H](NC(=O)[C@H](CCC(N)=O)NC(=O)[C@H](Cc1c[nH]cn1)NC(=O)[C@H](C)NC(=O)[C@H](CC(C)C)NC(=O)[C@H](Cc1c[nH]c2ccccc12)NC(=O)[C@H](CCC(N)=O)NC(=O)[C@@H](NC(=O)[C@@H](NC(=O)[C@@H]1CSSC[C@H](NC(=O)[C@@H](N)CCCCN)C(=O)N[C@@H](CC(N)=O)C(=O)N[C@@H]([C@@H](C)O)C(=O)N[C@@H](C)C(=O)N[C@@H]([C@@H](C)O)C(=O)N1)[C@@H](C)O)C(C)C)C(=O)N[C@@H](Cc1ccc(O)cc1)C(=O)N[C@@H](CCC(N)=O)C(=O)N[C@@H](Cc1ccccc1)C(=O)N[C@H](C(=O)N[C@@H](CC(=O)O)C(=O)N[C@@H](CCCCN)C(=O)N[C@@H](CC(=O)O)C(=O)N[C@@H](CCCCN)C(=O)N[C@@H](CC(=O)O)C(=O)N[C@@H](C)C(=O)N[C@H](C(=O)N[C@@H](C)C(=O)N1CCC[C@H]1C(=O)N1CCC[C@H]1C(=O)N[C@H](C(=O)N[C@@H](CC(N)=O)C(=O)N[C@H](C(=O)NCC(=O)N[C@@H](CO)C(=O)N[C@@H](CC(N)=O)C(=O)NCC(=O)N1C[C@H](O)C[C@H]1C(N)=O)C(C)C)[C@@H](C)O)C(C)C)[C@@H](C)O [compound 324] (H-KCNTATCTVQWLAHQIYQFTDKDKDAVAPPTNVGSNG[Hyp]-NH2; disulfide 2-7; N-terminus assumed) |
| 0.026 nM | 27.500% | > 5000 nM | CC[C@H](C)[C@H](NC(=O)[C@H](CC(N)=O)NC(=O)[C@H](CO)NC(=O)[C@H](CCCNC(=N)N)NC(=O)[C@@H]1CCCN1C(=O)[C@H](C)NC(=O)[C@@H](NC(=O)[C@H](CC(N)=O)NC(=O)[C@H](CC(=O)O)NC(=O)[C@H](CCCCN)NC(=O)[C@H](CC(=O)O)NC(=O)[C@H](CCCCN)NC(=O)[C@H](CC(=O)O)NC(=O)[C@@H](NC(=O)[C@H](Cc1ccccc1)NC(=O)[C@H](CCC(N)=O)NC(=O)[C@H](Cc1ccc(O)cc1)NC(=O)[C@@H](NC(=O)[C@H](CCC(N)=O)NC(=O)[C@H](Cc1c[nH]cn1)NC(=O)[C@H](C)NC(=O)[C@H](CC(C)C)NC(=O)[C@H](CCCNC(N)=O)NC(=O)[C@H](CCC(N)=O)NC(=O)[C@@H](NC(=O)[C@@H](NC(=O)[C@@H]1CSSC[C@H](NC(=O)CN)C(=O)N[C@@H](CCCNC(=N)N)C(=O)N[C@@H]([C@@H](C)O)C(=O)NCC(=O)N[C@@H]([C@@H](C)O)C(=O)N1)[C@@H](C)O)C(C)C)[C@@H](C)CC)[C@@H](C)O)C(C)C)C(=O)NCC(=O)N1CCC[C@H]1C(=O)N[C@@H](CC(N)=O)C(=O)NCC(=O)N1C[C@H](O)C[C@H]1C(N)=O [compound 297] (H-GCRTGTCTVQ[Cit]LAHQIYQFTDKDKDNVAPRSNIGPNG[Hyp]-NH2; disulfide 2-7; N-terminus assumed) |
